The nature of assay [1]: Inhibition of ERK phosphorylation in human KYSE520 cells incubated for 2 hrs by TR-FRET assay. In kind it is cell-based. Particulars: KYSE-520, 2 h. Background: TR-FRET usually uses a lanthanide donor and a delayed reading to cut background.
Assay [2] concerns the target Voltage-gated inwardly rectifying potassium channel KCNH2 (Homo sapiens, UniProt Q12809). The assay can be described thus: Inhibition of human ERG by fluorescence polarization assay. Type of assay: toxicity.
Another assay relates to KYSE-520 cell line. The assay can be described thus: Antiproliferative activity against human KYSE520 cells assessed as inhibition of cell proliferation incubated for 96 hrs by CellTiter-Glo reagent based assay. Particulars: KYSE-520, 96 h. Type of assay: functional.
The target of assay [3] is T1, Tyrosine-protein phosphatase non-receptor type 11 (Homo sapiens, UniProt Q06124).
T1 sequence (Q06124 whole entry): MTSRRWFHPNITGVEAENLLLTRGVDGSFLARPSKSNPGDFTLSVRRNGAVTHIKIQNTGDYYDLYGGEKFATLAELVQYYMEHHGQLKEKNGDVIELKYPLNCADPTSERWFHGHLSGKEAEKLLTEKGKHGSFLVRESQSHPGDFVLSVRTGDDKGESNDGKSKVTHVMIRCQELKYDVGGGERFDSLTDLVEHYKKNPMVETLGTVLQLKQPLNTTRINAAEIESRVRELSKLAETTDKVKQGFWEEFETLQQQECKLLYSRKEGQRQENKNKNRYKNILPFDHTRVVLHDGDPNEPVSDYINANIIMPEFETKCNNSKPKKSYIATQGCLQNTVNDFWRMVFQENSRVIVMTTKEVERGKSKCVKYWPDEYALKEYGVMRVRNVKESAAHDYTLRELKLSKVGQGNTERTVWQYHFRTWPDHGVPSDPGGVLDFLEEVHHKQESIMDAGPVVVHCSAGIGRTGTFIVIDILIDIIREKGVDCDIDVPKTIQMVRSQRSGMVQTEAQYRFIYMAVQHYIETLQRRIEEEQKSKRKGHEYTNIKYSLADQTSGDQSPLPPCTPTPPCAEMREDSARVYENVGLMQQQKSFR
The assay can be described thus: Allosteric inhibition of recombinant human SHP2 using IRS1 peptide and DiFMUP as substrate incubated for 30 mins followed by DiFMUP addition and measured after 30 mins by fluorescence based microplate reader analysis.

The structures appear in SMILES notation.

Sequence of Voltage-gated inwardly rectifying potassium channel KCNH2 (Q12809 whole entry): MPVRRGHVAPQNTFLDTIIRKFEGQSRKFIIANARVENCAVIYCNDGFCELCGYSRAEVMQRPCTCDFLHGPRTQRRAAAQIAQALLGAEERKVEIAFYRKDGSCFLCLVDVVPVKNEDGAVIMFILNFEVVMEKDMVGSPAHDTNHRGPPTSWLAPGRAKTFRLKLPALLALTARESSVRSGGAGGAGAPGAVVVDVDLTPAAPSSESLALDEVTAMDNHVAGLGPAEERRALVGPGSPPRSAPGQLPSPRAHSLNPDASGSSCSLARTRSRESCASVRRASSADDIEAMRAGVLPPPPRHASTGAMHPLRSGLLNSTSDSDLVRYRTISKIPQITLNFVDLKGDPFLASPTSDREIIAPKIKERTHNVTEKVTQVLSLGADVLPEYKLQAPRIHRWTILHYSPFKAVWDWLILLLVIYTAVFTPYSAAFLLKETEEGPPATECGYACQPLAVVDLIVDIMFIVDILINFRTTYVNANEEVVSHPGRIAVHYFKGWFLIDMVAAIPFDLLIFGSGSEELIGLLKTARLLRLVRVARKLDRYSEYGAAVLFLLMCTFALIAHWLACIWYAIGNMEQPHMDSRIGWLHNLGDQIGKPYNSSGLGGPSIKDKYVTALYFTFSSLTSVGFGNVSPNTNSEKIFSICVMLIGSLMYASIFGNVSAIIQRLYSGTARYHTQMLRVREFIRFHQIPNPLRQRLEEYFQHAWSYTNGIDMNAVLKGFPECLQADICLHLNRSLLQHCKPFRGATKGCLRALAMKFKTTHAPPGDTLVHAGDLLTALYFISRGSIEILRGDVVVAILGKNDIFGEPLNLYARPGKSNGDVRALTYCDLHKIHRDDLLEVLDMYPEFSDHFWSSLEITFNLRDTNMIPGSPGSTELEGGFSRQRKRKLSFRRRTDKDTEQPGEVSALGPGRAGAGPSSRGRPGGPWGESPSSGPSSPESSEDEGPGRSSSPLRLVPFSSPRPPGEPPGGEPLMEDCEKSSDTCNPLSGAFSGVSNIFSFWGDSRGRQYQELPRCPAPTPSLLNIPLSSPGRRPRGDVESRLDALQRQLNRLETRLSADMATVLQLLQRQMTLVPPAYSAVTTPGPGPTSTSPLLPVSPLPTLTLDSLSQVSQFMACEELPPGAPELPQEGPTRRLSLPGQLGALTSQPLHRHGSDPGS

As a reminder, the IC50 is the point on the concentration scale where inhibition reaches its midpoint. Take `Cc1nc(N2CCC3(CC2)CO[C@@H](C)[C@H]3N)c(CO)nc1-c1cccc(Cl)c1Cl`: the IC50 in assay [1] amounted to 22 nM; in assay [2] it was 3350 nM; in the assay on KYSE-520 cell line it was 4550 nM.
With `N[C@]1(c2ccccc2)[C@@H]2CCN(c3cnc4c(-c5cccc(Cl)c5Cl)n[nH]c4n3)C[C@@H]21`, the IC50 in assay [3] turned out to be 1460 nM.
Same read-out and setting: the figure for `NC[C@]1(c2ccccc2)[C@@H]2CN(c3nc4nc(Sc5cccnc5C(F)(F)F)cnc4[nH]3)C[C@@H]21` is more than 8000 nM.
On to `Cn1cc2c(Cl)c(-c3n[nH]c4nc(N5C[C@@H]6[C@H](C5)[C@@]6(CN)c5cnsn5)cnc34)ccc2n1`, for which the IC50 in assay [3] is 4 nM; in assay [1], 30 nM; in assay [2], more than 30000 nM.
Take `Cc1csc([C@@]2(CN)[C@@H]3CCN(c4nc5nc(Sc6cccnc6C(F)(F)F)cnc5[nH]4)C[C@@H]32)n1`: the IC50 in assay [3] amounted to 9 nM; in assay [1], 210 nM.
For `NC[C@]1(c2ccccn2)[C@@H]2CCN(c3cnc4c(-c5cccc(Cl)c5Cl)n[nH]c4n3)C[C@@H]21`, the results for the IC50 in assay [3], in assay [1] and in assay [2] were 5 nM, 42 nM and 42 nM, respectively.
Consider `Cc1csc([C@@]2(CN)[C@@H]3CCN(c4cnc(Sc5cccnc5C(F)(F)F)c(N)n4)C[C@@H]32)n1`, for which the IC50 in assay [3] stood at 65 nM; in assay [1] it was 9 nM.
Turning to `Cc1nc([C@@]2(CN)[C@@H]3CN(c4cnc5c(-c6ccc7nn(C)cc7c6Cl)n[nH]c5n4)C[C@@H]32)cs1`, the IC50 in assay [3] was 6 nM; in assay [1] it was 89 nM; in assay [2], more than 30000 nM.
Turning to `NC[C@]1(c2ccccn2)[C@@H]2CCN(c3nc4nc(Sc5cccnc5C(F)(F)F)cnc4[nH]3)C[C@@H]21`, the IC50 in assay [3] came out at 17 nM; in assay [1], 477 nM.
Take `Cc1cccc([C@@]2(CN)[C@@H]3CN(c4cnc5c(-c6ccc7nn(C)cc7c6Cl)n[nH]c5n4)C[C@@H]32)n1`: the IC50 in assay [3] came out at 4 nM; in assay [1], 90 nM; in assay [2], 5870 nM.
For `Cn1cc2c(Cl)c(-c3n[nH]c4nc(N5C[C@@H]6[C@H](C5)[C@@]6(CN)c5nc(Cl)cs5)cnc34)ccc2n1`, the IC50 turned out to be 5 nM in assay [3], 9 nM in assay [1], 12300 nM in assay [2] and 183 nM in the assay with KYSE-520 cell line.
On to `Cn1cc2c(Cl)c(-c3n[nH]c4nc(N5C[C@@H]6[C@H](C5)[C@@]6(CN)c5ccccn5)cnc34)ccc2n1`, for which the IC50 is 5 nM in assay [3], 40 nM in assay [1] and 8960 nM in assay [2].
For `Cc1csc([C@@]2(CN)[C@@H]3CN(c4cnc5c(-c6ccc7nc(C)sc7c6Cl)n[nH]c5n4)C[C@@H]32)n1` the same measures were 5 nM, 22 nM and 1660 nM.
With `NC[C@]1(c2ccsc2)[C@@H]2CCN(c3cnc4c(-c5cccc(Cl)c5Cl)n[nH]c4n3)C[C@@H]21`, the IC50 was 8 nM in assay [3], 100 nM in assay [1] and 109 nM in assay [2].
For the compound `NC[C@]1(c2ccccn2)[C@@H]2CCN(c3cnc(Sc4cccnc4C(F)(F)F)c(N)n3)C[C@@H]21`, the IC50 in assay [3] was 68 nM; in assay [1], 20 nM.
As to `Cc1nnc([C@@]2(CN)[C@@H]3CN(c4cnc5c(-c6ccc7nn(C)cc7c6Cl)n[nH]c5n4)C[C@@H]32)s1`, the 50% inhibitory concentration (IC50) in assay [3] is 10 nM; in assay [1] it was 162 nM; in assay [2] it was more than 30000 nM.
For `NC[C@]1(c2ccsc2)[C@@H]2CCN(c3cnc4c(-c5cccnc5C(F)(F)F)n[nH]c4n3)C[C@@H]21` the same measures were 34 nM, more than 666 nM and 5560 nM.
In the case of `NC[C@]1(c2ccsc2)[C@@H]2CCN(c3nc4nc(Sc5cccnc5C(F)(F)F)cnc4[nH]3)C[C@@H]21`, the IC50 in assay [3] is 54 nM; in assay [1], more than 1330 nM.
For `Cc1csc([C@@]2(CN)[C@@H]3CCN(c4cnc5c(-c6ccc7nn(C)cc7c6Cl)n[nH]c5n4)C[C@@H]32)n1`, the IC50 turned out to be 6 nM in assay [3], 14 nM in assay [1] and 107 nM in assay [2].
For `Cn1ccc([C@@]2(CN)[C@@H]3CN(c4cnc5c(-c6ccc7nn(C)cc7c6Cl)n[nH]c5n4)C[C@@H]32)n1` the same measures were 7 nM, 153 nM and more than 30000 nM.
In the case of `N[C@]1(c2ccccc2)[C@@H]2CN(c3nc4nc(Sc5cccnc5C(F)(F)F)cnc4[nH]3)C[C@@H]21`, in assay [3], the IC50 was more than 8000 nM.
Consider `Cc1csc([C@@]2(CN)[C@@H]3CCN(c4cnc5c(-c6ccn7nccc7c6Cl)n[nH]c5n4)C[C@@H]32)n1`, for which the IC50 stood at 3 nM in assay [3], 22 nM in assay [1] and 12 nM in assay [2].
As for `NC[C@]1(c2ccccc2)[C@@H]2CCN(c3nc4nc(Sc5cccnc5C(F)(F)F)cnc4[nH]3)C[C@@H]21`, the figures for the IC50 in assay [3] and in assay [1] were 94 nM and more than 1330 nM, respectively.
In the case of `Cn1cc2c(Cl)c(-c3n[nH]c4nc(N5C[C@@H]6[C@H](C5)[C@@]6(CN)c5ccccc5)cnc34)ccc2n1`, the IC50 in assay [3] came out at 9 nM; in assay [1] it was 70 nM; in assay [2], 5350 nM.
On to `Cn1cc2c(Cl)c(-c3n[nH]c4nc(N5C[C@@H]6[C@H](C5)[C@@]6(CN)c5nc(C(F)(F)F)cs5)cnc34)ccc2n1`, for which the IC50 in assay [3] is 12 nM; in assay [1], 21 nM; in assay [2], more than 30000 nM; with KYSE-520 cell line, 231 nM.
For `Cc1csc([C@@]2(CN)[C@@H]3CCN(c4cnc5c(-c6cccnc6C(F)(F)F)n[nH]c5n4)C[C@@H]32)n1`, the IC50 is 55 nM in assay [3], more than 666 nM in assay [1] and 5060 nM in assay [2].
For `Cc1ccn([C@@]2(CN)[C@@H]3CN(c4cnc5c(-c6ccc7nn(C)cc7c6Cl)n[nH]c5n4)C[C@@H]32)n1` the same measures were 49 nM, 444 nM and more than 30000 nM.
For `Cc1csc([C@]2(CN)[C@@H]3CN(c4cnc5c(-c6cccc(Cl)c6Cl)n[nH]c5n4)CC[C@@H]32)n1`, the IC50 in assay [3] stood at 370 nM; in assay [2], 769 nM.
Take `N[C@]1(c2ccccc2)[C@@H]2CCN(c3nc4nc(Sc5cccnc5C(F)(F)F)cnc4[nH]3)C[C@@H]21`: the IC50 in assay [3] came out at 1410 nM.
Regarding `Cn1cc2c(Cl)c(-c3n[nH]c4nc(N5C[C@@H]6[C@H](C5)[C@@]6(CN)c5nccs5)cnc34)ccc2n1`, the IC50 in assay [3] came to 4 nM; in assay [1] it was 60 nM; in assay [2] it was 13500 nM.
For `NC[C@]1(c2ccccc2)[C@@H]2CCN(c3cnc4c(-c5cccc(Cl)c5Cl)n[nH]c4n3)C[C@@H]21` the same measures were 9 nM, 260 nM and 389 nM.
For `NC[C@]1(c2ccccc2)[C@@H]2CCN(c3cnc(Sc4cccnc4C(F)(F)F)c(N)n3)C[C@@H]21`, in assay [3], the IC50 is 360 nM.
As for `Cc1csc([C@@]2(CN)[C@@H]3CN(c4cnc5c(-c6ccn7nccc7c6Cl)n[nH]c5n4)C[C@@H]32)n1`, the IC50 in assay [3] was 4 nM; in assay [1], 65 nM; in assay [2], 235 nM.
For `Cc1csc([C@@]2(CN)[C@@H]3CCN(c4cnc5c(-c6cccc(Cl)c6Cl)n[nH]c5n4)C[C@@H]32)n1` (racemic) the same measures were 6 nM, 71 nM and 250 nM.

(Values after ChEMBL document CHEMBL5257132, “Discovery of a Novel Series of Potent SHP2 Allosteric Inhibitors” (ACS Med Chem Lett, 2023).)
